Data: PMC11982498 (Redox Biology, 2025)

Assays:
[1] = tested on: BCL-2, C-MYC and VEGF protein expressions in SH-SY5Y cells; assay: Western blot in SH-SY5Y cells; type: cell-based; conditions: increasing concentration of B14, 24 h
Experimental: Protein samples (25–40 μg) were separated using 10 % SDS-PAGE and subsequently transferred onto PVDF membranes (0.22 μm, Servicebio, Guangzhou, China) via electro transfer. Following blocking with TBST solution (Servicebio, Guangzhou, China) containing 5 % BSA (Solarbio, Beijing, China) for approximately 60 min at room temperature, the membrane was exposed to various primary antibodies overnight at 4 °C on a rotating shaker. Then, the membranes were incubated with HRP-conjugated secondary antibody (Affinity, Changzhou, China) for 2 h. Protein bands were then detected using an ECL kit. The signal intensity of each target protein was quantified using Image J 1.8.0 software (Bio-Rad Laboratories, California, USA).
Primary antibodies for Western blot analysis include BCL-2 (affinity biosciences OH, Cat# AF6139, USA), BAX (affinity biosciences OH, Cat# AF0120, USA), VEGF (affinity biosciences OH, Cat# AF5131, USA), C-MYC (affinity biosciences OH, Cat# AF0358, USA), Caspase9 (affinity biosciences OH, Cat# AF6348, USA), cleaved-Caspase9 (affinity biosciences OH, Cat# AF5240, USA), Caspase3 (affinity biosciences OH, Cat# AF6311, USA), cleaved-Caspase3 (affinity biosciences OH, Cat# AF7022, USA), and Cyto-C (affinity biosciences OH, Cat# AF6139, USA).

[2] = tested on: SH-SY5Y cells; assay: JC-1 / Mito-tracker / H2DCFDA / Ca2+ staining in Aβ1-42 induced cell model; type: cell-based; conditions: 25 μM Aβ1-42 induced model
Experimental: SH-SY5Y cells were plated on 96 well plates. After 24h treatment with or without B14 in 25 μM Aβ1-42 induced cell model, the cells were washed for three times with cold PBS. Then cells were incubated with Hoechst 33342 solution (Sigma, 10 μg/mL) and H2DCFDA probe (10 μM, sigma), as well as Mito-tracker deep red (100 nM, sigma) for 10 min at 37 °C in the dark. All the samples were photographed by using FV3000 (Olympus). SH-SY5Y cells were plated on 6 well plates. After 24h treatment with B14 in 25 μM Aβ1-42 induced cell model, cells were incubated with JC-1 (5 μg/mL, sigma) for 30 min at 37 °C in the dark. Fluorescence detection was carried out by using EVOS FL Auto.

[3] = tested on: APP/PS1 transgenic mice; assay: Novel object recognition (NOR); type: in vivo; conditions: B14 10, 20, 40 mg/kg i.p. every other day
From the text: Five months old male APP/PS1 mice, weighing 25–33 g, were purchased from Guangdong Medical Laboratory Animal Center and housed in the Laboratory Animal Center of Sun Yat-sen University (Guangzhou, China) for experimentation. All procedures were approved by the Animal Care and Use Committee of Sun Yat-sen University and complied with legal requirements and national guidelines for the care and maintenance of laboratory animals (Approval No. SYSU-IACUC-2024-002032). The mice were housed in a specific pathogen-free environment with a controlled temperature of 22 ± 1 °C and a 12-h dark/light cycle. The mice were fed with a standard diet, and 30 mice were randomly divided into 6 groups (N = 5). Compound B14 was dissolved in saline and administered at doses of 10, 20, or 40 mg/kg. […]
The spatial memory and learning abilities of the mice were assessed using Morris water maze (MWM), novel object recognition (NOR) and nesting experiments (NBT). The anxiety and depressive behaviors were evaluated through the open field test (OFT) and elevated plus maze (EPM). […]
The novel object recognition (NOR) test evaluates mice's memory for familiar objects and their exploration of novel objects. […] The time spent exploring each object was recorded. The mice's learning and memory abilities were assessed by calculating the preference index (PI) using the formula PI = tB / (tA1 + tB).

[4] = target: T1, Aβ1-42 (Homo sapiens, UniProt P05067); assay: Thioflavine T (ThT) assay of self-induced Aβ1-42 aggregation; type: biochemical
T1 construct: Aβ1-42 was purchased from Gill Biochemicals Ltd (Shanghai, China); purchased Gill Biochemicals Ltd (Shanghai, China)
T1 sequence (P05067 672-713 limits assumed): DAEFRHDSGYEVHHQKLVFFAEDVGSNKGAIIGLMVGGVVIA
Experimental: The experiment was performed following standardized amyloid detection protocols without significant modification. Curcumin (Aladdin, Shanghai, China), a natural inhibitor of Aβ deposition, was used as a positive control with ThT (Aladdin, Shanghai, China) as a fluorescent indicator. 30 μL of freshly formulated Aβ1-42 (30 μM) was incubated without or with A1-16, B1-14, Curcumin at concentration of 40 μM for 24h. Then, it was mixed with 400 μL of freshly formulated ThT (15 μM), which was incubated in the dark for 30 min. Fluorescence signals were recorded using a fluorescence spectrophotometer, and changes in Aβ fibre deposition were determined through the strength of the fluorescence signals. The scanning conditions were set as follows: excitation wavelength at 440 nm, emission wavelength at 480 nm, and slit width of 20 nm.
^a Self-induced Aβ1-42 aggregation (means ± SD of three experiments). The thioflavin-T fluorescence method was used, and the measurements were carried out in the presence of 40 μM test compound. […]
[picture] […] The fluorescence intensity of different concentrations of B14 was measured after incubation with Aβ1-42. Data were statistically analyzed as mean ± SEM. (A) ThT fluorescence intensity. (B) IC50 value for B14 against Aβ1-42 aggregation was determined by using ThT fluorescence intensity.

[5] = tested on: BCL-2(G4) (DNA, G4) AGGGGCGGGCGCGGGAGGAAGGGGGCGGGAGCGGGGCTG; assay: ESI-MS; conditions: K+ 100 mM KCl plus potassium phosphate; BPES buffer, pH 7.4; no adduct peak
[6] = tested on: APP/PS1 transgenic mice; assay: Nissl and H&E staining of hippocampus; type: in vivo; conditions: vs model group
From the text: Five months old male APP/PS1 mice, weighing 25–33 g, were purchased from Guangdong Medical Laboratory Animal Center and housed in the Laboratory Animal Center of Sun Yat-sen University (Guangzhou, China) for experimentation. All procedures were approved by the Animal Care and Use Committee of Sun Yat-sen University and complied with legal requirements and national guidelines for the care and maintenance of laboratory animals (Approval No. SYSU-IACUC-2024-002032). The mice were housed in a specific pathogen-free environment with a controlled temperature of 22 ± 1 °C and a 12-h dark/light cycle. The mice were fed with a standard diet, and 30 mice were randomly divided into 6 groups (N = 5). Compound B14 was dissolved in saline and administered at doses of 10, 20, or 40 mg/kg. APP/PS1 male mice were grown until 6 months of age, and then injected intraperitoneally with compound B14 every other day for 60 days. Behavioral experiments were then conducted, and tissue specimens were collected for biochemical analysis.
The mice were sacrificed, with their brains and organs isolated and embedded in paraffin. The brains and organs were then sectioned into 6 μm thin slices. These slices were subjected to H&E or Nissl staining (Servicebio, Guangzhou, China). The stained sections were subsequently imaged and analyzed by using microscopy.

Structure (SMILES): O=C(CCN1CCOCC1)Nc1ccc2c(c1)c(=O)c1cc(NC(=O)CCN3CCOCC3)ccc1n2-c1ccc2occc2c1 [Compound B14]
- BCL-2 translation (Western blot) [1]: up-regulate BCL-2 translation in SH-SY5Y cells in a dose-dependent manner
- C-MYC and VEGF expression (Western blot) [1]: without significant effect on C-MYC and VEGF expression
- intracellular Ca^2+ (Fluo-5AM) [2]: could modulate aberrantly metabolized Ca^2+ in model cells in a dose-dependent manner
- oxidative stress (H2DCFDA) and mitochondrial number (MitoTracker) [2]: could attenuate oxidative stress without changing mitochondrial number
- red/green fluorescence intensity ratio (JC-1, mitochondrial membrane potential) [2]: could reduce the occurrence of early apoptosis
- times to touch new objects and index of preference (NOR) [3]: significantly increased
- inhibition at 40 µM ([4]; 40 μM compound, ThT fluorescence, read-out: inhibition of Aβ self-aggregation): 78.4%
- IC50 ([4]; ThT fluorescence intensity, read-out: IC50 against Aβ1-42 aggregation): 24 µM
- binding [5]: no
- hippocampal neuron damage (HE staining) [6]: could reverse the damage of hippocampal neurons in mice
- number of Nissl bodies in CA1-CA4 and DG regions [6]: restored
